Data: ChEMBL document CHEMBL4354805, “Discovery of MK-8719, a Potent O-GlcNAcase Inhibitor as a Potential Treatment for Tauopathies” (J Med Chem, 2019)

Experiments:
[1] = Drug excretion in rat bile at 10 mg/kg, po; type: ADME, organism-based; settings: read-out: Drug excretion
[2] = Drug excretion in rat urine at 10 mg/kg, po; type: ADME, organism-based; settings: read-out: Drug excretion
[3] = Drug excretion in dog at 3 mg/kg, po; type: ADME, organism-based, Canis lupus familiaris; settings: in vivo, read-out: Drug excretion
[4] = Drug excretion in dog cage at 3 mg/kg, po; type: ADME, organism-based, Canis lupus familiaris; settings: read-out: Drug excretion
[5] = Drug excretion in rat feces at 10 mg/kg, po; type: ADME, organism-based; settings: faeces, read-out: Drug excretion
[6] = Drug excretion in rat cage at 10 mg/kg, po; type: ADME, organism-based; settings: read-out: Drug excretion
[7] = Drug excretion in dog bile at 3 mg/kg, po; type: ADME, organism-based, Canis lupus familiaris; settings: read-out: Drug excretion
[8] = Drug excretion in dog urine at 3 mg/kg, po; type: ADME, organism-based, Canis lupus familiaris; settings: read-out: Drug excretion
[9] = Drug excretion in rat at 10 mg/kg, po; type: ADME, organism-based; settings: in vivo, read-out: Drug excretion

dose excreted [1]: 17%
dose excreted [2]: 75%
dose excreted [3]: 88%
dose excreted [4]: 1%
dose excreted [5]: 0.5%
dose excreted [6]: 3%
dose excreted [7]: 8%
dose excreted [8]: 79%
dose excreted [9]: 96%
Structure (SMILES): [3H][C@@]1(O)[C@@H](C(F)F)O[C@@H]2SC(NCC)=N[C@@H]2[C@H]1O
